Data reported in patent EP3613735A1, “NOVEL SIRT 1 ACTIVATOR AND MEDICINAL USE THEREOF” (Pusan National University Industry - University Cooperation …, priority 2017, dated 2018).

Key:
db/db mice [1] = assay: Dietary intake and weight in obese animal model; type: in vivo, mouse; conditions: oral 5 mg/kg daily for 4 weeks, compared to db/db mice group
Procedure: The metabolic disease control ability of Compound 32u was analyzed using db/db mice lacking an appetite-regulating hormone leptin receptor as an obese animal model. Compound 32u was orally administered to db/db mice (9 weeks old) at a concentration of 5 mg/kg daily for 4 weeks. The metabolic disease control ability of Compound 70c was analyzed using db/db mice lacking an appetite-regulating hormone leptin receptor as an obese animal model. Compound 70c was orally administered to db/db mice (9 weeks old) at a concentration of 5 mg/kg daily for 4 weeks.

db/db mice [2] = assay: Serum insulin by ELISA in obese animal model; type: in vivo; conditions: oral 5 mg/kg daily, compared with db/db mouse group
Procedure: The metabolic disease control ability of Compound 32u was analyzed using db/db mice lacking an appetite-regulating hormone leptin receptor as an obese animal model. Compound 32u was orally administered to db/db mice (9 weeks old) at a concentration of 5 mg/kg daily for 4 weeks. Next, the blood insulin concentration was measured using an enzyme-linked immunosorbent assay (ELISA). Mouse insulin ELISA (TMB) kit ([…], Japan) was used, and serum separated from animal blood was added to a 96 well plate coated with insulin primary antibody and after reacting, the secondary antibody and the substrate were added, reacted and the changed color was measured by an absorbance meter. The metabolic disease control ability of Compound 70c was analyzed using db/db mice lacking an appetite-regulating hormone leptin receptor as an obese animal model. Compound 70c was orally administered to db/db mice (9 weeks old) at a concentration of 5 mg/kg daily for 4 weeks. Next, the blood insulin concentration was measured using an enzyme-linked immunosorbent assay (ELISA). Mouse insulin ELISA (TMB) kit ([…], Japan) was used, and serum separated from animal blood was added to a 96 well plate coated with insulin primary antibody and after reacting, the secondary antibody and the substrate were added, reacted and the changed color was measured by an absorbance meter.

[3] = system: FASN, ACC, SREBP-1a, SREBP-1c and SREBP-2; assay: Liver mRNA expression of fat synthesis genes, quantitative real-time PCR; type: in vivo, mouse; conditions: db/db mice, oral 5 mg/kg daily for 4 weeks
Procedure: Since obesity and insulin resistance are representative diseases directly related to the development of non-alcoholic fatty liver, the improvement effect of Compound 32u on fatty liver was analyzed. Compound 32u was orally administered to db/db mice (9 weeks old) at a concentration of 5 mg/kg daily for 4 weeks. First, the accumulation of fat in the liver, the most representative phenotype, was measured. Briefly, about 50 mg of liver was quantified in cold phosphate buffered saline (PBS) or 0.9% sodium chloride (NaCl) and crushed, followed by treating with mixed solvent of chloroform and methanol (MeOH) in a volume ratio of 2:1 and reacted for 2 hours. […] Thereafter, the amount of neutral fat was measured by absorbance using a neutral fat measurement kit (Stanbio laboratory, TX USA). In order to confirm the corresponding mechanism, mRNA expression of genes related to fat synthesis and degradation was analyzed. […] For the synthesized cDNA, a quantative real-time polymerase chain reaction (quantative real-time PCR) was performed to target the desired gene as a primer and quantify it in real time. Since obesity and insulin resistance are representative diseases directly related to the development of non-alcoholic fatty liver, the improvement effect of Compound 70c on fatty liver was analyzed. […] First, the accumulation of fat in the liver, the most representative phenotype, was measured. […]

p-IRE = assay: Liver endoplasmic reticulum stress marker, Western blot; type: in vivo, mouse; conditions: db/db mice, oral treatment
Procedure: The cause of non-alcoholic liver disease (NAFLD) is unclear, but recent studies report that endoplasmic reticulum (ER) stress can be involved in fatty liver development and progression to non-alcoholic fatty hepatitis. Thus, in order to analyze the effect of Compound 32u on endoplasmic reticulum stress-related marker (p-IRE) was identified by Western blot. Briefly, about 50 mg of liver was quantified, homogenated and lysed to extract proteins. After quantifying the extracted protein and loading the same amount thereof in the polyacrylamide gel, the protein was separated according to molecular weight through SDS-PAGE (sodium dodecyl sulfate-polyacrylamide gel electrophoresis). Proteins separated according to molecular weight were transferred to a membrane by applying an electric field, and the desired protein was detected using a specific antibody. After reacting the primary antibody that specifically binds to the protein to be detected for at least 12 hours, the secondary antibody that specifically binds to the primary antibody is reacted for 1 hour, and the expression of the protein can be analyzed by treating the developer liquid containing the substrate HRP (horse radish peroxidase) present in the secondary antibody. […] Briefly, about 50 mg of liver was quantified, homogenated and lysed to extract proteins. […]

Compound | dietary intake (db/db mice [1]) | weight (db/db mice [1]) | serum insulin concentration (db/db mice [2]) | expression of fat synthesis genes (FASN, ACC, SREBP-1a, SREBP-1c and SREBP-2) [3] | protein expression of endoplasmic reticulum stress-related markers (p-IRE) (p-IRE)
Cl.O=C(Nc1ccccc1-c1cc2ccc(CN3CCNCC3)cc2o1)c1ccc2ccccc2c1 [Compound 32u, N-(2-(6-(Piperazin-1-ylmethyl)benzofuran-2-yl)phenyl)-2-naphthamide hydrochloride] | no difference | no difference | reduced | significantly reduced | significantly reduced
O=C(Nc1ccccc1-c1nc2cc(CN3CCN(C4CCCCC4)CC3)ccc2o1)c1ccc2ccccc2c1 [Compound 70c, N-(2-(5-((4-Cyclohexylpiperazin-1-yl)methyl)benzo[d]oxazol-2-yl)phenyl)-2-naphthamide] | no difference | no difference | reduced | significantly reduced | significantly reduced
